Data set [1] deals with cytotoxicity of vincristine. As to conditions: J. Antibiotics vol XLIII No. 8, 1018-1020; cited from earlier work.
In another data set the target is PAI-1 (Homo sapiens, UniProt P05121). Put plainly: PAI-1 inhibition in the S2251 chromogenic substrate assay (PAI functional assay). Particulars: for INHIBITION OF PAI-1 (degree of inhibition): unit assumed; for IC50: PAI-1, S2251 assay; for inhibition at 20 µM / inhibition at 100 µM / inhibition at 50 µM: read-out: INHIBITION OF PAI-1 (degree of inhibition). The class given is biochemical. The gist of the method: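 Read-out is p-nitroaniline absorbance at 405 nm from plasmin cleavage of S2251. PAI-1 is first incubated with test compound before entering the tPA assay, where uninhibited tPA generates plasmin from plasminogen.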
PAI-1, sequence (P05121 24-402): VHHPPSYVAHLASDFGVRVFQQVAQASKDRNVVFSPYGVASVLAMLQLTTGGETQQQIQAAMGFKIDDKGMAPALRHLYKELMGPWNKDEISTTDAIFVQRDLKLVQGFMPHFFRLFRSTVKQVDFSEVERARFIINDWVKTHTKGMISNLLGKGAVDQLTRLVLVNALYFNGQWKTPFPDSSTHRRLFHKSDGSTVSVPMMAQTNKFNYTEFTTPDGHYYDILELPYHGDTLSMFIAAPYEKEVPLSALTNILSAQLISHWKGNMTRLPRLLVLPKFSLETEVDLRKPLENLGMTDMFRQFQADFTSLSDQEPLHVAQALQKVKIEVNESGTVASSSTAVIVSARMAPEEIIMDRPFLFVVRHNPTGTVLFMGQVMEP

SMILES strings stand for the structures. Counter-ions that a name gives are not always drawn.

What is called IC50 is the concentration that inhibits the measured activity by half. Low readings indicate greater potency in that assay, high ones weaker potency in that assay. By inhibition is commonly meant the relative decrease from the control value, in per cent.

As for `Cn1c(=O)/c(=C/c2ccccc2)[nH]c(=O)/c1=C/c1ccccc1` [piperafizine A], the “utility as potentiators of the cytotoxicity of vincristine” value in data set [1] is listed as “potentiators of the cytotoxicity of vincristine”.
As to `O=c1[nH]/c(=C\c2ccccc2)c(=O)[nH]/c1=C\c1ccccc1` [piperafizine B], the “utility as potentiators of the cytotoxicity of vincristine” value in data set [1] is “potentiators of the cytotoxicity of vincristine”.
`CC(C)(C)OC(=O)n1cc(/C=c2\[nH]c(=O)/c(=C/c3c(Cl)cccc3Cl)[nH]c2=O)c2ccccc21` [Compound 1560, (3Z,6Z)-3-(2,6-Dichlorobenzylidene)-6-(1-tert-butoxycarbonyl-3-indolyl)methylene-2,5-piperazinedione]: the INHIBITION OF PAI-1 (degree of inhibition) on PAI-1 (6.25 μm, Table 1, first part) turned out to be 13%; on PAI-1 (12.5 μm, Table 1, first part), 34%; on PAI-1 (25 μm, Table 1, first part), 46%; on PAI-1 (50 μm, Table 1, first part) it was 48%; on PAI-1 (100 μm, Table 1, first part) it was 50%. The same compound yielded an IC50 against PAI-1 (Table 2) of 50 to 100 µM.
Consider `COc1ccc(/C=c2\[nH]c(=O)/c(=C/c3ccc(CN)cc3)[nH]c2=O)cc1` [Compound 1657, (3Z,6Z)-3-(4-Aminomethylbenzylidene)-6-(4-methoxybenzylidene)-2,5-piperazinedione], for which the INHIBITION OF PAI-1 (degree of inhibition) on PAI-1 (12.5 μm, Table 1, first part) was found to be 2%; at PAI-1 (25 μm, Table 1, first part), 46%; at PAI-1 (50 μm, Table 1, first part), 60%; at PAI-1 (100 μm, Table 1, first part), 53%. The same compound came in with an IC50 against PAI-1 (Table 2) of 25 to 50 µM.
Turning to `O=C(NCCCCN1CCc2ccccc2C1)c1ccc(/C=c2\[nH]c(=O)/c(=C/c3ccccc3)[nH]c2=O)cc1` [Compound 5379], the inhibition at 20 µM on PAI-1 (20 μM, Table 1, second part) turned out to be 65%. It took 15 µM to reach half-maximal inhibition against PAI-1 (Table 1, second part) (IC50).
Consider `COc1ccc(/C=c2\[nH]c(=O)/c(=C/c3c[nH]c4ccccc34)[nH]c2=O)cc1` [Compound 1545, (3Z,6Z)-3-(3-Indolylmethylene)-6-(4-methoxybenzylidene)-2,5-piperazinedione], for which the INHIBITION OF PAI-1 (degree of inhibition) on PAI-1 (6.25 μm, Table 1, first part) is 1%; at PAI-1 (12.5 μm, Table 1, first part), 5%; at PAI-1 (25 μm, Table 1, first part) it was 39%; at PAI-1 (50 μm, Table 1, first part) it was 64%; at PAI-1 (100 μm, Table 1, first part), 87%.
The like results for `CN(C)CCN(C)Cc1ccc(/C=c2\[nH]c(=O)/c(=C/c3ccccc3)[nH]c2=O)cc1` [Compound 1982, (3Z,6Z)-3-Benzylidene-6-(4-(N-methyl-N-(2-dimethylaminoethyl)aminomethylbenzylidene-2,5-piperazinedione hydrochloride] were, in that order, 1%, 6%, 28%, 49% and 48%.
In the case of `CN(C)CCCOc1ccc(/C=c2\[nH]c(=O)/c(=C/c3ccc(Cn4ccnc4)cc3)[nH]c2=O)cc1` [Compound 5026, (3Z,6Z)-3-(4-(3-Dimethylaminopropoxy)benzylidene)-6-(4-(1-imidazolyl)methylbenzylidene)-2,5-piperazinedione], the inhibition at 20 µM on PAI-1 (20 μM, Table 1, second part) came to 10%. Also, the inhibition at 100 µM on PAI-1 (Table 1, second part) was 34%.
Consider `O=c1[nH]/c(=C\c2ccc(OCCn3ccnc3)cc2)c(=O)[nH]/c1=C\c1ccccc1` [Compound 5055, (3Z,6Z)-6-Benzylidene-3-(4-(2-(1-imidazolyl)ethoxy)benzylidene)2,5-piperazinedione], for which the inhibition at 20 µM on PAI-1 (20 μM, Table 1, second part) was determined as 70%. On PAI-1 (Table 1, second part), the inhibition at 50 µM stood at 69% and the inhibition at 100 µM was found to be 69%.
On to `CC(C)(C)OC(=O)n1cccc1/C=c1\[nH]c(=O)/c(=C/c2ccccc2)[nH]c1=O` [Compound 1470, (3Z,6Z)-3-Benzylidene-6-(2-(1-tertbutoxycarbonyl)pyrrolyl)methylene-2,5-piperazinedione], for which the INHIBITION OF PAI-1 (degree of inhibition) on PAI-1 (6.25 μm, Table 1, first part) was determined as 0%; at PAI-1 (12.5 μm, Table 1, first part), 0%; on PAI-1 (25 μm, Table 1, first part) it was 2%; at PAI-1 (50 μm, Table 1, first part) it was 20%; at PAI-1 (100 μm, Table 1, first part), 70%. The same compound returned an IC50 against PAI-1 (Table 2) of 50 to 100 µM.
For the compound `O=c1[nH]/c(=C\C2CCCCC2)c(=O)[nH]/c1=C\c1ccccc1` [Compound 1884, (3Z,6Z)-3-Benzylidene-6-cyclohexylmethylene-2,5-piperazinedione], the INHIBITION OF PAI-1 (degree of inhibition) on PAI-1 (6.25 μm, Table 1, first part) amounted to 0%; at PAI-1 (12.5 μm, Table 1, first part), 0%; at PAI-1 (25 μm, Table 1, first part) it was 0%; at PAI-1 (50 μm, Table 1, first part) it was 14%; on PAI-1 (100 μm, Table 1, first part) it was 40%.
`CN(C)CCCOc1ccc(/C=c2\[nH]c(=O)/c(=C/c3ccc(-n4ccnc4)cc3)[nH]c2=O)cc1` [Compound 5030, (3Z,6Z)-3-(4-(3-Dimethylaminopropoxy)benzylidene)-6-(4-(1-imidazolyl)benzylidene)-2,5-piperazinedione]: the inhibition at 20 µM at PAI-1 (20 μM, Table 1, second part) was found to be 6%. Besides, at PAI-1 (Table 1, second part), the inhibition at 50 µM was found to be 7% and the inhibition at 100 µM came out at 20%.
`CN(C)CCOc1ccc(/C=c2\[nH]c(=O)/c(=C/c3ccccc3)[nH]c2=O)s1` [Compound 5324, (3Z,6Z)-6-Benzylidene-3-(5-(2-dimethylaminoethoxy)-2-thienylmethylene)-2,5-piperazinedione] yielded an IC50 at PAI-1 (Table 1, second part) of 9 µM. This counts as single-digit micromolar.
Turning to `O=c1[nH]/c(=C\c2ccccc2)c(=O)[nH]/c1=C\C=Cc1ccc([N+](=O)[O-])cc1` [Compound 1923], the INHIBITION OF PAI-1 (degree of inhibition) was found to be 13% at PAI-1 (6.25 μm, Table 1, first part); 12% on PAI-1 (12.5 μm, Table 1, first part); 20% on PAI-1 (25 μm, Table 1, first part); 31% at PAI-1 (50 μm, Table 1, first part); 38% on PAI-1 (100 μm, Table 1, first part).
With `O=c1[nH]/c(=C\c2c(Cl)cccc2Cl)c(=O)[nH]/c1=C\c1ccoc1` [Compound 1542, (3Z,6Z)-3-(2,6-Dichlorobenzylidene)-6-(3-furylmethylene)-2,5-piperazinedione], the INHIBITION OF PAI-1 (degree of inhibition) at PAI-1 (6.25 μm, Table 1, first part) stood at 1%; on PAI-1 (12.5 μm, Table 1, first part), 1%; on PAI-1 (25 μm, Table 1, first part), 9%; at PAI-1 (50 μm, Table 1, first part), 41%; on PAI-1 (100 μm, Table 1, first part), 75%. For the same compound, the IC50 against PAI-1 (Table 2) is 50 to 100 µM.
Consider `O=c1[nH]/c(=C\c2ccc3c(c2)OCO3)c(=O)[nH]/c1=C\c1ccccc1` [Compound 1808, (3Z,6Z)-3-Benzylidene-6-(3,4-methylenedioxybenzylidene)-2,5-piperazinedione], for which the INHIBITION OF PAI-1 (degree of inhibition) at PAI-1 (6.25 μm, Table 1, first part) came out at 1%; at PAI-1 (12.5 μm, Table 1, first part), 2%; at PAI-1 (25 μm, Table 1, first part) it was 73%; at PAI-1 (50 μm, Table 1, first part) it was 48%; on PAI-1 (100 μm, Table 1, first part), 76%.
As for `COc1ccc(/C=c2\[nH]c(=O)/c(=C/c3cn(C(=O)OC(C)(C)C)c4ccccc34)[nH]c2=O)cc1` [Compound 1506, (3Z,6Z)-3-(4-Methoxybenzylidene)-6-(3-(1-tert-butoxycarbonyl)indolyl)methylene-2,5-piperazinedione], the INHIBITION OF PAI-1 (degree of inhibition) is 2% on PAI-1 (6.25 μm, Table 1, first part); 4% at PAI-1 (12.5 μm, Table 1, first part); 26% at PAI-1 (25 μm, Table 1, first part); 58% at PAI-1 (50 μm, Table 1, first part); 75% on PAI-1 (100 μm, Table 1, first part). For the same compound, the IC50 against PAI-1 (Table 2) lay within 25 to 50 µM.
`CC(C)(C)OC(=O)n1cc(/C=c2\[nH]c(=O)/c(=C/c3cccs3)[nH]c2=O)c2ccccc21` [Compound 1618, (3Z,6Z)-3-(1-tert-butoxycarbonyl-3-indolyl)methylene-6-(2-thenylidene)-2,5-piperazinedione]: the INHIBITION OF PAI-1 (degree of inhibition) at PAI-1 (12.5 μm, Table 1, first part) came out at 1%; at PAI-1 (25 μm, Table 1, first part) it was 3%; on PAI-1 (50 μm, Table 1, first part), 32%; at PAI-1 (100 μm, Table 1, first part), 51%. This compound also gave an IC50 against PAI-1 (Table 2) of 50 to 100 µM.
Take `CN(C)CCCOc1ccc(/C=c2\[nH]c(=O)/c(=C/c3ccc(C(=O)NCCCCN4CCc5ccccc5C4)cc3)[nH]c2=O)cc1` [Compound 5397.HCl]: the INHIBITION OF PAI-1 (degree of inhibition) at PAI-1 (20 μM, Table 1, second part) was 21%.
On to `O=c1[nH]/c(=C\c2ccccc2)c(=O)[nH]/c1=C\C=C(c1ccccc1)c1ccccc1` [Compound 1922, (3Z,6Z)-3-Benzylidene-6-(γ-phenylcinnamylidene)-2,5-piperazinedione], for which the INHIBITION OF PAI-1 (degree of inhibition) amounted to 14% at PAI-1 (6.25 μm, Table 1, first part); 13% on PAI-1 (12.5 μm, Table 1, first part); 26% at PAI-1 (25 μm, Table 1, first part); 11% at PAI-1 (50 μm, Table 1, first part); 13% on PAI-1 (100 μm, Table 1, first part).
